Values quoted from earlier work, collected in PMC7898037, “Improving mitochondria and ER stability helps eliminate upper motor neuron degeneration that occurs due to mSOD1 toxicity and TDP‐43 pathology” (Clinical and Translational Medicine, 2021).

What was measured:
[1] = tested on: SOD1^G93A‐expressing PC12 cell; conditions: PC12 cell‐based assay; cited from earlier work
[2] = tested on: SOD1 model mouse; conditions: cited from earlier work
[3] = tested on: cortical neurons; parameters: method as in earlier work; conditions: ref 53 (compound 2), ref 54 (NU‐9); cited from earlier work

SMILES: O=C1CC(=O)CC(c2ccc(F)cc2)C1 [compound 1]
- effect on mSOD1‐induced protein aggregation [1]: inhibit mSOD1‐induced protein aggregation
- effect on mSOD1‐mediated toxicity [1]: reduce mSOD1‐mediated toxicity

SMILES: Nc1nc2ccc(OC(F)(F)F)cc2s1 [riluzole]
- longevity of the misfolded SOD1 (mSOD1) mouse model [2]: failed to improve the longevity

SMILES: O=C1CC(=O)CC(c2cc(C(F)(F)F)cc(C(F)(F)F)c2)C1 [compound 2]
- penetration into neurons [3]: did not penetrate into neurons
